Results reported in article PMC3690672 (European journal of nuclear medicine and molecular imaging, 2009).
Where “and” joins values, the source holds several entries; their conditions need not be identical. Identical values can stand only once. Like-named read-outs stand apart in the source and are kept apart here.

How the values were obtained:
[1] = system: P-glycoprotein (P-gp) at the blood-brain barrier; format: in vivo, rat
[2] = Tariquidar or elacridar concentrations in plasma and brain by LC/MS; format: in vivo; conditions: rat; for concentration at 210 min / concentration at 180 min: intravenous
[3] = biological target: T1, P-glycoprotein (P-gp) at the blood-brain barrier (Rattus norvegicus, UniProt Q6PSM0); conditions: for DV (Logan) of VPM / DV of VPM (2T4K model) / K1 of VPM (2T4K model) / k2 of VPM (2T4K model) / k3 of VPM (2T4K model) / k4 of VPM (2T4K model): whole brain, PET 120 min after, mean±SD
T1 sequence (Q6PSM0 1-1272): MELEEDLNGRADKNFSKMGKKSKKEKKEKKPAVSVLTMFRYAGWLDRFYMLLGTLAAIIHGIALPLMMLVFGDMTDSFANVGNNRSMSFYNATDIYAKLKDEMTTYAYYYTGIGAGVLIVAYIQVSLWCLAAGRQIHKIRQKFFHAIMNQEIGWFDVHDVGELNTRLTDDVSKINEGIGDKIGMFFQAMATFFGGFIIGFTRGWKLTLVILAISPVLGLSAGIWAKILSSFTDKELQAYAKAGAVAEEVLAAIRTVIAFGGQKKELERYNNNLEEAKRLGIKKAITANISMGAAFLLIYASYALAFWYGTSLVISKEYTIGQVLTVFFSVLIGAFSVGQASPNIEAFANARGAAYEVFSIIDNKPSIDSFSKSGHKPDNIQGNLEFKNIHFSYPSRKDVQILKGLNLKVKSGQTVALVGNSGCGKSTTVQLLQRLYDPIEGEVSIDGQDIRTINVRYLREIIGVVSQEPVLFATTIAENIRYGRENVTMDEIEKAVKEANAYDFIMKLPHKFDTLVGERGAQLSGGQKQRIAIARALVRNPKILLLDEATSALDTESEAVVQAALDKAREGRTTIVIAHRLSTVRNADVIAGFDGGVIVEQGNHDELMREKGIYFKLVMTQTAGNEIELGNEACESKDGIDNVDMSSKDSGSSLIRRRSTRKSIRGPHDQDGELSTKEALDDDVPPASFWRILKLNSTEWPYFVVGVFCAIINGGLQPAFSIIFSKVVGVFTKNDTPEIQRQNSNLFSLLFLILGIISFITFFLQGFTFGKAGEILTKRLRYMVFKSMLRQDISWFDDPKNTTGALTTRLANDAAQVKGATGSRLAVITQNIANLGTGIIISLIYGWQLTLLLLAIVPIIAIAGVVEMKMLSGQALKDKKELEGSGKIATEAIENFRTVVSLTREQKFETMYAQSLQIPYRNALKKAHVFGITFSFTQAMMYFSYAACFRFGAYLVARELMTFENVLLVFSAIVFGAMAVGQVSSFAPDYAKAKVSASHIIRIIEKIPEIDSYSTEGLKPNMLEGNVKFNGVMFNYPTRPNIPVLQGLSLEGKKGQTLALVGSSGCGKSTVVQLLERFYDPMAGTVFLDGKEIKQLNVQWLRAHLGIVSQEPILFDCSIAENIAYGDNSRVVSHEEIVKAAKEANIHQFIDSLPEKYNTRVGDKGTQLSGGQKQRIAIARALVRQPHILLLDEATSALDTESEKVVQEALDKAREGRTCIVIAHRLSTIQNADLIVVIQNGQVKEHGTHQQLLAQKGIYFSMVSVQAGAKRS

[4] = biological target: T1, P-glycoprotein (P-gp) at the blood-brain barrier; conditions: for Mean DV increase (of baseline DV): 3 mg/kg tariquidar; for DV (Logan) of VPM / DV of VPM (2T4K model) / K1 of VPM (2T4K model) / k2 of VPM (2T4K model) / k3 of VPM (2T4K model) / k4 of VPM (2T4K model): after 3 mg/kg tariquidar (scan 2, 120 min after), mean±SD, n=6
[5] = system: multidrug resistance-associated proteins (MRPs), such as MRP1; conditions: cited from earlier work
[6] = system: P-gp at the blood-brain barrier; conditions: humans, 2 mg/kg, plasma 490±203 ng/ml; cited from earlier work
[7] = system: P-gp at the blood-brain barrier; conditions: 15 mg/kg, rats; cited from earlier work
[8] = humans, 2 mg/kg; cited from earlier work
[9] = biological target: T1, P-glycoprotein (P-gp) at the blood-brain barrier; assay: in vivo
[10] = Hill fit of whole-brain DV vs inhibitor dose

What does the source list for `COc1cc2c(cc1OC)CN(CCc1ccc(NC(=O)c3cc(OC)c(OC)cc3NC(=O)c3cnc4ccccc4c3)cc1)CC2` [tariquidar, Tariquidar dimesylate]?
Reversibility of the effect on brain TACs ([1]; 15 mg/kg, decline of TACs after peak uptake): at least partially reversible; Time of peak VPM brain uptake (maximum effect) after inhibitor injection ([1]; tariquidar 15 mg/kg or elacridar 5 mg/kg at 60 min after radiotracer injection): 30 ± 5 min and 30 min; concentration at 210 min ([2]; brain, 3 mg/kg): 457 ± 37 ng/mL; concentration at 180 min ([2]; brain, 15 mg/kg): 6450 ± 3600 ng/mL; Kp at […] ([2]; brain, iv, 3 mg/kg): 1 ± 0.3; Kp at 3 h ([2]; brain, iv, 15 mg/kg): 1.7 ± 0.9; concentration at 210 min ([2]; plasma, 3 mg/kg): 503 ± 139 ng/mL; concentration at 180 min ([2]; plasma, 15 mg/kg): 4000 ± 390 ng/mL; DVmax (maximum effect) [3, 10]: 11.9±0.5 ml·ml^−1; Hill factor n [3, 10]: 3.0±0.6; Dose leading to complete inhibition of P-gp ([3]; according to dose-response assessment (Fig. 2)): above 6 mg/kg; Maximum increase in VPM brain distribution (DV) over baseline ([3]; at maximum effective doses, rat brain): up to 11 fold; Whole-brain DV increase (factor) as compared to baseline scans ([3]; inhibitor 3.75 mg/kg): 7.0±1.1; Whole-brain DV increase (factor) as compared to baseline scans ([3]; inhibitor 7.5 mg/kg): 10.1±0.8; Whole-brain DV increase (factor) as compared to baseline scans ([3]; inhibitor 15 mg/kg): 9.9±1.8; Whole-brain DV increase (factor) as compared to baseline scans ([3]; inhibitor 30 mg/kg): 10.2±0.3; Increase of brain DVs at the half-maximum effect plasma concentration ([3]; rat, in vivo): approximately 4 fold; DV (Logan) of VPM ([3]; inhibitor 3.75 mg/kg i.v.): 8.80±1.06 (0.9) ml·ml^−1; DV of VPM (2T4K model) ([3]; inhibitor 3.75 mg/kg i.v.): 8.92±1.11 (2.3) ml·ml^−1; K1 of VPM (2T4K model) ([3]; inhibitor 3.75 mg/kg i.v.): 0.81±0.16 (13.9) ml·ml^−1·min^−1; k2 of VPM (2T4K model) ([3]; inhibitor 3.75 mg/kg i.v.): 0.18±0.05 (50.3) min^−1; k3 of VPM (2T4K model) ([3]; inhibitor 3.75 mg/kg i.v.): 0.20±0.02 (101.3) min^−1; k4 of VPM (2T4K model) ([3]; inhibitor 3.75 mg/kg i.v.): 0.22±0.07 (51.4) min^−1; DV (Logan) of VPM ([3]; inhibitor 7.5 mg/kg i.v.): 12.66±0.77 (0.9) ml·ml^−1; DV of VPM (2T4K model) ([3]; inhibitor 7.5 mg/kg i.v.): 12.93±0.79 (1.7) ml·ml^−1; K1 of VPM (2T4K model) ([3]; inhibitor 7.5 mg/kg i.v.): 1.27±0.24 (17.4) ml·ml^−1·min^−1; k2 of VPM (2T4K model) ([3]; inhibitor 7.5 mg/kg i.v.): 0.31±0.12 (82.5) min^−1; k3 of VPM (2T4K model) ([3]; inhibitor 7.5 mg/kg i.v.): 0.37±0.10 (97.3) min^−1; k4 of VPM (2T4K model) ([3]; inhibitor 7.5 mg/kg i.v.): 0.18±0.01 (23.9) min^−1; DV (Logan) of VPM ([3]; inhibitor 15 mg/kg i.v.): 12.35±1.79 (1.4) ml·ml^−1; DV of VPM (2T4K model) ([3]; inhibitor 15 mg/kg i.v.): 12.72±1.83 (1.8) ml·ml^−1; K1 of VPM (2T4K model) ([3]; inhibitor 15 mg/kg i.v.): 1.02±0.02 (15.0) ml·ml^−1·min^−1; k2 of VPM (2T4K model) ([3]; inhibitor 15 mg/kg i.v.): 0.43±0.16 (50.3) min^−1; k3 of VPM (2T4K model) ([3]; inhibitor 15 mg/kg i.v.): 0.48±0.04 (39.2) min^−1; k4 of VPM (2T4K model) ([3]; inhibitor 15 mg/kg i.v.): 0.12±0.02 (20.4) min^−1; DV (Logan) of VPM ([3]; inhibitor 30 mg/kg i.v.): 12.76±0.04 (0.7) ml·ml^−1; DV of VPM (2T4K model) ([3]; inhibitor 30 mg/kg i.v.): 13.11±0.22 (2.1) ml·ml^−1; K1 of VPM (2T4K model) ([3]; inhibitor 30 mg/kg i.v.): 1.22±0.23 (11.2) ml·ml^−1·min^−1; k2 of VPM (2T4K model) ([3]; inhibitor 30 mg/kg i.v.): 0.30±0.04 (54.6) min^−1; k3 of VPM (2T4K model) ([3]; inhibitor 30 mg/kg i.v.): 0.38±0.18 (59.4) min^−1; k4 of VPM (2T4K model) ([3]; inhibitor 30 mg/kg i.v.): 0.17±0.09 (19.8) min^−1; Mean DV increase (of baseline DV) ([4]; cerebellum): 2.8±0.7; DV (Logan) of VPM ([4]; cerebellum): 6.07±0.52 (0.9) ml·ml^−1; DV of VPM (2T4K model) ([4]; cerebellum): 6.14 ml·ml^−1 and 6.14±0.54 (2.9) ml·ml^−1; K1 of VPM (2T4K model) ([4]; cerebellum): 0.73±0.14 (11.7) ml·ml^−1·min^−1; k2 of VPM (2T4K model) ([4]; cerebellum): 0.32±0.13 (46.6) min^−1; k3 of VPM (2T4K model) ([4]; cerebellum): 0.30±0.08 (75.2) min^−1; k4 of VPM (2T4K model) ([4]; cerebellum): 0.20±0.05 (26.4) min^−1; Mean DV increase (of baseline DV) ([4]; corpus striatum): 5.9±1.1; DV (Logan) of VPM ([4]; corpus striatum): 8.70±1.05 (0.6) ml·ml^−1; DV of VPM (2T4K model) ([4]; corpus striatum): 8.89±1.08 (2.7) ml·ml^−1; K1 of VPM (2T4K model) ([4]; corpus striatum): 0.79±0.13 (10.5) ml·ml^−1·min^−1; k2 of VPM (2T4K model) ([4]; corpus striatum): 0.28±0.08 (46.6) min^−1; k3 of VPM (2T4K model) ([4]; corpus striatum): 0.47±0.22 (53.4) min^−1; k4 of VPM (2T4K model) ([4]; corpus striatum): 0.22±0.06 (23.1) min^−1; Mean DV increase (of baseline DV) ([4]; entorhinal cortex): 3.0±1.4; DV (Logan) of VPM ([4]; entorhinal cortex): 6.09±1.37 (1.1) ml·ml^−1; DV of VPM (2T4K model) ([4]; entorhinal cortex): 6.20±1.40 (3.4) ml·ml^−1; K1 of VPM (2T4K model) ([4]; entorhinal cortex): 0.64±0.17 (12.9) ml·ml^−1·min^−1; k2 of VPM (2T4K model) ([4]; entorhinal cortex): 0.37±0.14 (57.5) min^−1; k3 of VPM (2T4K model) ([4]; entorhinal cortex): 0.34±0.10 (68.9) min^−1; k4 of VPM (2T4K model) ([4]; entorhinal cortex): 0.15±0.05 (22.5) min^−1; Mean DV increase (of baseline DV) ([4]; frontal motor cortex): 3.1±1.1; DV (Logan) of VPM ([4]; frontal motor cortex): 7.14±0.80 (0.9) ml·ml^−1; DV of VPM (2T4K model) ([4]; frontal motor cortex): 7.33±0.82 (1.7) ml·ml^−1; K1 of VPM (2T4K model) ([4]; frontal motor cortex): 0.63±0.08 (9.5) ml·ml^−1·min^−1; k2 of VPM (2T4K model) ([4]; frontal motor cortex): 0.24±0.05 (49.6) min^−1; k3 of VPM (2T4K model) ([4]; frontal motor cortex): 0.32±0.09 (68.7) min^−1; k4 of VPM (2T4K model) ([4]; frontal motor cortex): 0.19±0.06 (23.8) min^−1; Mean DV increase (of baseline DV) ([4]; hippocampus): 6.4±0.9; DV (Logan) of VPM ([4]; hippocampus): 8.01±0.88 (0.9) ml·ml^−1; DV of VPM (2T4K model) ([4]; hippocampus): 8.17±0.91 (2.2) ml·ml^−1; K1 of VPM (2T4K model) ([4]; hippocampus): 0.75±0.11 (11.1) ml·ml^−1·min^−1; k2 of VPM (2T4K model) ([4]; hippocampus): 0.32±0.08 (57.9) min^−1; k3 of VPM (2T4K model) ([4]; hippocampus): 0.43±0.09 (69.4) min^−1; k4 of VPM (2T4K model) ([4]; hippocampus): 0.18±0.05 (23.8) min^−1; Mean DV increase (of baseline DV) ([4]; thalamus): 7.1±1.1; DV (Logan) of VPM ([4]; thalamus): 9.45±1.03 (0.6) ml·ml^−1; DV of VPM (2T4K model) ([4]; thalamus): 9.64 ml·ml^−1 and 9.64±1.06 (2.0) ml·ml^−1; K1 of VPM (2T4K model) ([4]; thalamus): 0.93±0.12 (9.0) ml·ml^−1·min^−1; k2 of VPM (2T4K model) ([4]; thalamus): 0.33±0.18 (48.8) min^−1; k3 of VPM (2T4K model) ([4]; thalamus): 0.47±0.11 (64.4) min^−1; k4 of VPM (2T4K model) ([4]; thalamus): 0.23±0.06 (23.6) min^−1; Inhibition of MRPs, such as MRP1 [5]: do not inhibit; Increase of brain DVs of VPM [6]: 1.24 fold; DV increase of VPM following tariquidar [7]: approximately 12 fold; Plasma concentration at the time of the PET scan [8]: 490 ± 203 ng/mL; EC50 at 180 min [9]: 0.545 ± 0.0299 µg/mL; ED50 at 120 min ([9]; Sprague-Dawley, iv): 3 ± 0.2 mg/kg
